Measurements reported in US5773414A, “Endothelin antagonists” (Warner-Lambert Company, priority 1997, dated 1998).
Square brackets hold non-standard residues; d marks the D form. Peptide text beside a SMILES is read from it. * marks the point of attachment. Acetyl(1-adamantyl) = O=C(CC12CC3CC(CC(C3)C1)C2)*; dDip = N[C@@H](C(=O)O)C(c1ccccc1)c1ccccc1; Fmoc = O=C(OCC1c2ccccc2-c2ccccc21)*; Cyclohexylacetyl = O=C(CC1CCCCC1)*; X1 = CC(C(=O)*)(c1ccccc1)c1ccccc1; Orn = NCCC[C@H](N)C(=O)O; Piv = CC(C)(C)C(=O)*

Experiments:
ETB = target: T1, ETB (Rattus norvegicus, UniProt P21451); experiment: Endothelin Receptor Binding Assay-B (ETB), [125I]-ET-1 binding in rat cerebellar membranes; conditions: Table IIa; rat cerebellar membranes; read-out: Binding Assay IC50 at Receptor Subtypes ETB
T1 construct: thaw one aliquot of frozen rat cerebellar membranes; from tissue; host or cells: rat cerebellar membranes
T1 sequence (P21451 27-442): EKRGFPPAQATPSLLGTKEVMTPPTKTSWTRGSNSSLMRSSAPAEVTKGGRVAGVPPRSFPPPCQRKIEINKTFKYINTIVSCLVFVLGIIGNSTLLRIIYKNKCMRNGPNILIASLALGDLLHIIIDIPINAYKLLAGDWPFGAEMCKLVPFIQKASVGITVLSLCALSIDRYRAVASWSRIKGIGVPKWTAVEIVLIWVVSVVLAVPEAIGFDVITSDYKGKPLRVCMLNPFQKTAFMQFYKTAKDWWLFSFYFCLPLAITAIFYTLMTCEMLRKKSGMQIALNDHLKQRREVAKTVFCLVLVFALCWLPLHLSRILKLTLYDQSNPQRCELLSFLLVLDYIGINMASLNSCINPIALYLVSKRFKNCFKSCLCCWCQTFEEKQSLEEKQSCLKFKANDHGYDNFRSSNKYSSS
Experimental: The tissue is made up of 20 mM tris(hydroxymethyl)aminomethane hydrochloride (Trizma) buffer, 2 mM ethylenediaminetetraacetate, 100 μM phenylmethylsulfonyl fluoride.
First, thaw one aliquot of frozen rat cerebellar membranes (2 mg protein in 0.5 mL). Next, add 0.5 mL membrane aliquot to 4.5 mL cold tissue buffer, polytron at 7,500 revolutions per minute for 10 seconds. Finally, dilute tissue suspension 1/100 (0.1 mL suspension+9.9 mL tissue buffer), polytron again, and place ice.
Mix in 150 μL of tissue to each tube, vortex briefly, then tap to force all liquids to bottom (total assay volume=250 μL). Then place the tubes in a 37° C. water bath for 2 hours.
Add 2.5 mL cold water buffer (50 mM Trizma buffer) to each tube, filter, and then wash tube with additional 2.5 mL wash buffer and add to filter. Finally, wash filters with an additional 2.5 mL of cold wash buffer.
Count filters for radioactivity in gamma counter.

ETA = target: T2, ETA (Oryctolagus cuniculus, UniProt A5A8K3); experiment: Endothelin Receptor Binding Assay-A (ETA), intact cell binding of [125I]-ET-1; design: species or system rabbit; conditions: Table IIa; rabbit renal artery vascular smooth muscle cells; read-out: Binding Assay IC50 at Receptor Subtypes ETA
T2 construct: The cells used were rabbit renal artery vascular smooth muscle cells; endogenous in cells; host or cells: rabbit renal artery vascular smooth muscle cells
T2 sequence (A5A8K3 21-427): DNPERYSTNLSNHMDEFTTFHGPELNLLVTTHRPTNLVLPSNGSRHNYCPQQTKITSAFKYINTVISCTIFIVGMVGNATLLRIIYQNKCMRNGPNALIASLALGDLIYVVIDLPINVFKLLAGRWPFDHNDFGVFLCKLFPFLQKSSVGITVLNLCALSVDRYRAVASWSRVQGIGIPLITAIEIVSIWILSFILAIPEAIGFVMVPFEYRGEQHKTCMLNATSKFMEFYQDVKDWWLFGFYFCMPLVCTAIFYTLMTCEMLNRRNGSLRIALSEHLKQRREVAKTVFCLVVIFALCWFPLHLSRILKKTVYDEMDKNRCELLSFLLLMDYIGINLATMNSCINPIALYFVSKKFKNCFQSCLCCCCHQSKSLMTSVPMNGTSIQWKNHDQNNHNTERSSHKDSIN
Experimental: The cells used were rabbit renal artery vascular smooth muscle cells grown in a 48-well dish (1 cm^2) (confluent cells).
The growth media was Dulbeccos Modified Eagles/Ham's F12 which contained 10 fetal bovine serum and antibiotics (penicillin/streptomycin/fungizone).
Second, remove the assay buffers, place the dish on ice, and add 150 μL of cold assay buffer described above to each well. […] Next, place dish in a 37° C. water bath for about 2 hours and gently agitate the dish every 15 minutes. Discard the radioactive incubation mixture in the sink and wash wells 3 times with 1 mL of cold phosphate buffered saline. Last, add […] of 0.25M sodium hydroxide, agitate for 1 hour on rotator, and then transfer the sodium hydroxide extract to gamma counting tubes and count the radioactivity.

CC[C@H](C)[C@H](NC(=O)[C@H](CC(=O)O)NC(=O)[C@H](CCCN)NC(=O)[C@@H](Cc1ccccc1)NC(C)=O)C(=O)N[C@H](C(=O)N[C@@H](Cc1c[nH]c2ccccc12)C(=O)O)[C@@H](C)CC [Example 8, Ac--D--Phe--Orn--Asp--Ile--Ile--Trp] (Ac-[dF][Orn]DIIW-OH)
IC50 (ETB): 4000 nM

CC[C@H](C)[C@H](NC(=O)[C@H](CC(=O)O)NC(=O)[C@H](CCC(=O)O)NC(=O)[C@@H](Cc1ccccc1)NC(C)=O)C(=O)N[C@H](C(=O)N[C@@H](Cc1c[nH]c2ccccc12)C(=O)O)[C@@H](C)CC [Example 9, Ac--D--Phe--Glu--Asp--Ile--Ile--Trp] (Ac-[dF]EDIIW-OH)
IC50 (ETB): 1300 nM | IC50 (ETA): 650 nM

CC[C@H](C)[C@H](NC(=O)[C@H](CC(=O)O)NC(=O)[C@H](CC(C)C)NC(=O)[C@H](NC(=O)CC12CC3CC(CC(C3)C1)C2)C(c1ccccc1)c1ccccc1)C(=O)N[C@H](C(=O)N[C@@H](Cc1c[nH]c2ccccc12)C(=O)O)[C@@H](C)CC [Example 35, Ada--D--Dip--Leu--Asp--Ile--Ile--Trp] ({Acetyl(1-adamantyl)}-[dDip]LDIIW-OH)
IC50 (ETB): 500 nM | IC50 (ETA): 4000 nM

CC[C@H](C)[C@H](NC(=O)[C@H](CC(=O)O)NC(=O)[C@H](CC(C)C)NC(=O)C(C)(c1ccccc1)c1ccccc1)C(=O)N[C@H](C(=O)N[C@@H](Cc1c[nH]c2ccccc12)C(=O)O)[C@@H](C)CC [Example 28, Bppa--Leu--Asp--Ile--Ile--Trp] (X1-LDIIW-OH)
IC50 (ETB): 1700 nM | IC50 (ETA): 8000 nM

CC[C@H](C)[C@H](NC(=O)[C@@H]1CCCN1C(=O)[C@H](CC(N)=O)NC(=O)[C@H](CC(C)C)NC(=O)[C@@H](Cc1ccccc1)NC(C)=O)C(=O)N[C@@H](Cc1c[nH]c2ccccc12)C(=O)O [Example 90, Ac--D--Phe--Leu--Asn--Pro--Ile--Trp] (Ac-[dF]LNPIW-OH)
IC50 (ETB): 2800 nM | IC50 (ETA): 1980 nM

CC[C@H](C)[C@H](NC(=O)[C@H](CC(=O)O)NC(=O)[C@H](CC(C)C)NC(=O)[C@H](NC(C)=O)C(c1ccccc1)c1ccccc1)C(=O)N[C@H](C(=O)N[C@@H](Cc1ccc(O)cc1)C(=O)O)[C@@H](C)CC [Example 88, Ac--D--Dip--Leu--Asp--Ile--Ile--Tyr] (Ac-[dDip]LDIIY-OH)
IC50 (ETB): 6300 nM | IC50 (ETA): 3700 nM

CC[C@H](C)[C@H](NC(=O)[C@H](CC(=O)O)NC(=O)[C@H](CC(C)C)NC(=O)[C@H](N)C(c1ccccc1)c1ccccc1)C(=O)N[C@H](C(=O)N[C@@H](Cc1c[nH]c2ccccc12)C(=O)O)[C@@H](C)CC [Example 49, D--Dip--Leu--Asp--Ile--Ile--Trp] (H-[dDip]LDIIW-OH)
IC50 (ETA): 2100 nM

CC[C@H](C)[C@H](NC(=O)[C@H](CC(=O)O)NC(=O)[C@H](NC(C)=O)C(c1ccccc1)c1ccccc1)C(=O)N[C@H](C(=O)N[C@@H](Cc1c[nH]c2ccccc12)C(=O)O)[C@@H](C)CC [Example 94, Ac--D--Dip--Asp--Ile--Ile--Trp] (Ac-[dDip]DIIW-OH; C-terminus assumed)
IC50 (ETB): 250 nM | IC50 (ETA): > 1000 nM

CC[C@H](C)[C@H](NC(=O)[C@H](CC(=O)O)NC(=O)[C@H](CC(C)C)NC(=O)[C@H](NC(C)=O)C(c1ccccc1)c1ccccc1)C(=O)N[C@H](C(=O)N[C@@H](Cc1c[nH]c2ccccc12)C(N)=O)[C@@H](C)CC [Example 24, Ac--D--Dip--Leu--Asp--Ile--Ile--Trp--NH2] (Ac-[dDip]LDIIW-NH2)
IC50 (ETB): 5000 nM | IC50 (ETA): 320 nM

CC[C@H](C)[C@H](NC(=O)[C@H](C)NC(=O)[C@H](CC(=O)O)NC(=O)[C@H](CC(C)C)NC(=O)[C@@H](Cc1ccccc1)NC(C)=O)C(=O)N[C@@H](Cc1c[nH]c2ccccc12)C(=O)O [Example 73, Ac--D--Phe--Leu--Asp--Ala--Ile--Trp] (Ac-[dF]LDAIW-OH)
IC50 (ETB): 330 nM | IC50 (ETA): 3500 nM

CC[C@H](C)[C@H](NC(=O)[C@H](CCCCN)NC(=O)[C@H](CC(C)C)NC(=O)[C@H](NC(C)=O)C(c1ccccc1)c1ccccc1)C(=O)N[C@H](C(=O)N[C@@H](Cc1c[nH]c2ccccc12)C(=O)O)[C@@H](C)CC [Example 69, Ac--D--Dip--Leu--Lys--Ile--Ile--Trp] (Ac-[dDip]LKIIW-OH)
IC50 (ETB): 33 nM | IC50 (ETA): 480 nM

CC[C@H](C)[C@H](NC(=O)[C@H](CC(=O)O)NC(=O)[C@H](CC(C)C)NC(=O)[C@H](NC(=O)OCC1c2ccccc2-c2ccccc21)C(c1ccccc1)c1ccccc1)C(=O)N[C@H](C(=O)N[C@@H](Cc1c[nH]c2ccccc12)C(=O)O)[C@@H](C)CC [Example 30, Fmoc--D--Dip--Leu--Asp--Ile--Ile--Trp] (Fmoc-[dDip]LDIIW-OH)
IC50 (ETB): 6000 nM | IC50 (ETA): 6000 nM

CC[C@H](C)[C@H](NC(=O)[C@H](CC(=O)O)NC(=O)[C@H](C)NC(=O)[C@@H](Cc1ccccc1)NC(C)=O)C(=O)N[C@H](C(=O)N[C@@H](Cc1c[nH]c2ccccc12)C(=O)O)[C@@H](C)CC [Example 59, Ac--D--Phe--Ala--Asp--Ile--Ile--Trp] (Ac-[dF]ADIIW-OH)
IC50 (ETB): 300 nM | IC50 (ETA): 400 nM

CC[C@H](C)[C@H](NC(=O)[C@H](CC(=O)O)NC(=O)[C@H](CC(C)C)NC(=O)[C@H](NC(=O)C(C)(C)C)C(c1ccccc1)c1ccccc1)C(=O)N[C@H](C(=O)N[C@@H](Cc1c[nH]c2ccccc12)C(=O)O)[C@@H](C)CC [Example 38, tBu--D--Dip--Leu--Asp--Ile--Ile--Trp] (Piv-[dDip]LDIIW-OH)
IC50 (ETB): 500 nM | IC50 (ETA): 10000 nM

CC[C@H](C)[C@H](NC(=O)[C@H](CC(=O)O)NC(=O)[C@H](CC(C)C)NC(=O)[C@H](NC(=O)CC1CCCCC1)C(c1ccccc1)c1ccccc1)C(=O)N[C@H](C(=O)N[C@@H](Cc1c[nH]c2ccccc12)C(=O)O)[C@@H](C)CC [Example 34, Cxl--D--Dip--Leu--Asp--Ile--Ile--Trp] (Cyclohexylacetyl-[dDip]LDIIW-OH)
IC50 (ETB): 200 nM | IC50 (ETA): 3400 nM

CC[C@H](C)[C@H](NC(=O)[C@H](CC(=O)O)NC(=O)[C@@H](Cc1ccccc1)NC(=O)[C@@H](Cc1ccccc1)NC(C)=O)C(=O)N[C@H](C(=O)N[C@@H](Cc1c[nH]c2ccccc12)C(=O)O)[C@@H](C)CC [Example 61, Ac--D--Phe--D--Phe--Asp--Ile--Ile--Trp] (Ac-[dF][dF]DIIW-OH)
IC50 (ETB): 10 nM

CC[C@H](C)[C@H](NC(=O)[C@H](Cc1ccccc1)NC(=O)[C@H](CC(C)C)NC(=O)[C@@H](Cc1ccccc1)NC(C)=O)C(=O)N[C@H](C(=O)N[C@@H](Cc1c[nH]c2ccccc12)C(=O)O)[C@@H](C)CC [Example 67, Ac--D--Phe--Leu--Phe--Ile--Ile--Trp] (Ac-[dF]LFIIW-OH)
IC50 (ETB): 35 nM

CC[C@H](C)[C@H](NC(=O)[C@H](CC(=O)O)NC(=O)[C@H](CC(C)C)NC(=O)[C@@H](Cc1ccc(O)cc1)NC(C)=O)C(=O)N[C@H](C(=O)N[C@@H](Cc1c[nH]c2ccccc12)C(=O)O)[C@@H](C)CC [Example 10, Ac--D--Tyr--Leu--Asp--Ile--Ile--Trp] (Ac-[dY]LDIIW-OH)
IC50 (ETA): 400 nM

CC[C@H](C)[C@H](NC(=O)[C@H](CC(=O)O)NC(=O)[C@H](Cc1ccccc1)NC(=O)[C@@H](Cc1ccccc1)NC(C)=O)C(=O)N[C@H](C(=O)N[C@@H](Cc1c[nH]c2ccccc12)C(=O)O)[C@@H](C)CC [Example 60, Ac--D--Phe--Phe--Asp--Ile--Ile--Trp] (Ac-[dF]FDIIW-OH)
IC50 (ETB): 300 nM

CC[C@H](C)[C@H](NC(=O)[C@H](CC(=O)O)NC(=O)[C@H](CC(C)C)NC(=O)[C@@H](Cc1ccccc1)NC(C)=O)C(=O)N[C@H](C(=O)N[C@@H](Cc1c[nH]c2ccccc12)C(=O)O)[C@@H](C)CC [Example 1, Ac--D--Phe--Leu--Asp--Ile--Ile--Trp] (Ac-[dF]LDIIW-OH)
IC50 (ETB): 3300 nM
